BindingDB's records for doi:10.1016/j.bmcl.2014.09.001 (University of Pittsburgh, 2014)

Experiments:
[1] = molecular target: T1, Signal transducer and activator of transcription 1-alpha/beta (Homo sapiens, UniProt P42224); test: Inhibition of IFNgamma-induced STAT1 phosphorylation in human Cal33 cells by Western blot analysis
T1 sequence (P42224 whole entry): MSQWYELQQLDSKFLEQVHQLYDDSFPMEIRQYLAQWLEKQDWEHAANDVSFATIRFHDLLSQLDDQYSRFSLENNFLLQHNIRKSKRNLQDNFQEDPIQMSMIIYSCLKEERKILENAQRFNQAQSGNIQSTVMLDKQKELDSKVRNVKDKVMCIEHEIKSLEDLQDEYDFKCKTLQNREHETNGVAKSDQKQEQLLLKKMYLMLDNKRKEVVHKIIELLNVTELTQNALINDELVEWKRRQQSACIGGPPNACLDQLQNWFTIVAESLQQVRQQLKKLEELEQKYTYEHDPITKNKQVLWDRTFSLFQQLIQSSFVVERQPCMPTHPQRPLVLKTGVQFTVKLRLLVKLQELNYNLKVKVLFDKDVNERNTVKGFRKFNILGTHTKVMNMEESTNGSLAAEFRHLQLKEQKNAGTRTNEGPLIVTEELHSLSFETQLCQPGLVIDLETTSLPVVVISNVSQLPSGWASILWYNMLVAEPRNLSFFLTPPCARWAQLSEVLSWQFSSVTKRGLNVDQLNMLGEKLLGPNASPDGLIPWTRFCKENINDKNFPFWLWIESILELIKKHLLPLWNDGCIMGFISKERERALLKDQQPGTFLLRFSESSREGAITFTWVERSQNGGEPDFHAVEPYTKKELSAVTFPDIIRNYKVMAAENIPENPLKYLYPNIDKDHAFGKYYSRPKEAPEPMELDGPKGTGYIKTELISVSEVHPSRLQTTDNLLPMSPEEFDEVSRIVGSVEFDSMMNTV

[2] = Inhibition of IL-6-induced STAT3 phosphorylation in human Cal33 cells assessed as nuclear translocation by Western blot analysis

Question: Which IC50 [1] does the source give for `Cc1nc(NCc2ccccc2)nc2ccccc12` here?
Answer: > 30 µM

Question: What about the IC50 [2] of the same compound?
Answer: > 30 µM

Question: Which IC50 [1] does the source give for `Cc1cc(C)c2nc(Nc3nc(C)c(C)c(O)n3)nc(C)c2c1` here?
Answer: > 50 µM

Question: And the IC50 [2]?
Answer: 6.4 µM

Question: For `CC1=CC(C)(C)N=C(Nc2nc(C)c3cc(C)cc(C)c3n2)N1` [US9211296, Table 7, Compd: 9], which IC50 [1] is on record?
Answer: 5.9 µM

Question: Which IC50 [1] does the source give for `Cc1nc(Nc2nc(=O)cc(-c3ccccc3)[nH]2)nc2cc3c(cc12)OCO3` here?
Answer: > 50 µM

Question: And the IC50 [2]?
Answer: 13 µM

Question: What does the source list for `Cc1cc(=O)nc(Nc2nc(C)c3cc4c(cc3n2)OCO4)[nH]1`?
Answer: IC50 [1]: > 50 µM; IC50 [2]: > 50 µM

Question: Which IC50 [1] does the source give for `Cc1nc(Nc2ccccn2)nc2ccccc12` here?
Answer: > 30 µM

Question: For `CCOc1ccc2nc(Nc3nc(=O)cc(C)[nH]3)nc(C)c2c1`, which IC50 [1] is on record?
Answer: > 50 µM

Question: Which IC50 [1] does the source give for `Cc1ccc2c(C)nc(Nc3nc(=O)c(C)c(C)[nH]3)nc2c1` here?
Answer: 35.2 µM

Question: For `Cc1ccc(CNc2nc(C)c3ccccc3n2)o1`, which IC50 [1] is on record?
Answer: > 30 µM

Question: What does the source list for `Cc1[nH]c(Nc2nc(C)c3cc4c(cc3n2)OCO4)nc(=O)c1C`?
Answer: IC50 [1]: > 50 µM; IC50 [2]: > 50 µM

Question: For `Cc1nc(NCc2ccc3c(c2)OCO3)nc2ccccc12`, which IC50 [1] is on record?
Answer: > 30 µM

Question: And the IC50 [2]?
Answer: > 30 µM

Question: With `CCOc1ccc2nc(Nc3nc(=O)c(C)c(C)[nH]3)nc(C)c2c1` as the compound, how does the IC50 [1] read?
Answer: > 50 µM

Question: Which IC50 [1] does the source give for `Cc1nc(NCCc2c[nH]c3ccccc23)nc2ccccc12` here?
Answer: > 30 µM

Question: And the IC50 [2]?
Answer: > 30 µM

Question: Which IC50 [1] does the source give for `Cc1nc(Nc2ccccc2)nc2ccccc12` here?
Answer: > 30 µM

Question: Which IC50 [1] does the source give for `Cc1nc(NC2CCCCC2)nc2ccccc12` here?
Answer: > 30 µM

Question: With `Cc1ccc2c(C)nc(Nc3nc(=O)cc(C)[nH]3)nc2c1` as the compound, how does the IC50 [1] read?
Answer: 39.7 µM

Question: For `CCOc1ccc2nc(Nc3nc(=O)cc(-c4ccccc4)[nH]3)nc(C)c2c1`, which IC50 [1] is on record?
Answer: > 50 µM

Question: With `Cc1[nH]c(Nc2nc(C)c3cc4c(cc3n2)OCO4)nc(=O)c1Cc1ccccc1` as the compound, how does the IC50 [1] read?
Answer: > 50 µM

Question: And the IC50 [2]?
Answer: > 50 µM

Question: With `C=CCc1c(C)[nH]c(Nc2nc(C)c3cc(C)cc(C)c3n2)nc1=O` as the compound, how does the IC50 [1] read?
Answer: > 50 µM

Question: With `Cc1nc(NCc2cccc3ccccc23)nc2ccccc12` as the compound, how does the IC50 [1] read?
Answer: > 30 µM

Question: What does the source list for `COc1ccc2nc(Nc3nc(=O)cc(C)[nH]3)nc(C)c2c1`?
Answer: IC50 [1]: > 50 µM; IC50 [2]: 34.9 µM

Question: For `Cc1cc(=O)nc(Nc2nc(C)c3cc(C)c(C)cc3n2)[nH]1`, which IC50 [1] is on record?
Answer: > 50 µM

Question: With `CCOc1ccc2nc(NC3=NC(C)=CC(C)(C)N3)nc(C)c2c1` as the compound, how does the IC50 [1] read?
Answer: > 50 µM

Question: With `CCOc1ccc2c(C)nc(NC3=NC(C)=CC(C)(C)N3)nc2c1` [DNDI1417388] as the compound, how does the IC50 [1] read?
Answer: > 50 µM

Question: Which IC50 [1] does the source give for `COc1ccc2nc(Nc3nc(=O)c(Cc4ccccc4)c(C)[nH]3)nc(C)c2c1` here?
Answer: 50 µM

Question: Which IC50 [1] does the source give for `CC1=CC(C)(C)N=C(Nc2nc(C)c3cc(C)ccc3n2)N1` here?
Answer: > 50 µM

Question: With `COc1ccc2c(C)nc(Nc3nc(C)cc(O)n3)nc2c1` as the compound, how does the IC50 [1] read?
Answer: > 50 µM

Question: Which IC50 [1] does the source give for `Cc1cc2nc(Nc3nc(=O)c(C)c(C)[nH]3)nc(C)c2cc1C` here?
Answer: > 50 µM

Question: And the IC50 [2]?
Answer: 10.4 µM

Question: Which results are given for `Cc1nc(NCCN2CCOCC2)nc2ccccc12`?
Answer: IC50 [1]: > 30 µM; IC50 [2]: > 30 µM

Question: With `Cc1cc(C)c2nc(Nc3nc(=O)cc(-c4ccccc4)[nH]3)nc(C)c2c1` as the compound, how does the IC50 [1] read?
Answer: > 50 µM
